In PubChem BioAssay (NCI):
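Step 1: Grow cells in 96-well plates. Step 2: Expose to compound for 48 hours at 5 concentrations. Step 3: Interpolate endpoints linearly; if unreached, use highest concentration. The concentration for 50% growth inhibition is given as GI50. TGI is the concentration that stops growth completely.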

Legend:
Experiment in all cases: DTP human tumour cell line panel, 48 h
786-0 renal = system: 786-0 renal
SF-295 CNS = system: SF-295 CNS
HCC-2998 colon = system: HCC-2998 colon
SNB-19 CNS = system: SNB-19 CNS
HCT-116 colon = system: HCT-116 colon
U251 CNS = system: U251 CNS
A549 NSCLC = system: A549 NSCLC
HCT-15 colon = system: HCT-15 colon
SW-620 colon = system: SW-620 colon
DU-145 prostate = system: DU-145 prostate
MDA-MB-231 breast = system: MDA-MB-231 breast
NCI-H460 lung = system: NCI-H460 lung
M14 melanoma = system: M14 melanoma
MOLT-4 leukemia = system: MOLT-4 leukemia
SF-268 CNS = system: SF-268 CNS
UO-31 renal = system: UO-31 renal
HOP-62 NSCLC = system: HOP-62 NSCLC
OVCAR-8 ovarian = system: OVCAR-8 ovarian
SR leukemia = system: SR leukemia
SK-MEL-2 melanoma = system: SK-MEL-2 melanoma
SN12C renal = system: SN12C renal
IGROV1 ovarian = system: IGROV1 ovarian
HL-60(TB) leukemia = system: HL-60(TB) leukemia
MALME-3M melanoma = system: MALME-3M melanoma
SK-OV-3 ovarian = system: SK-OV-3 ovarian
HOP-92 NSCLC = system: HOP-92 NSCLC
SK-MEL-28 melanoma = system: SK-MEL-28 melanoma
A498 renal = system: A498 renal
NCI/ADR-RES ovarian = system: NCI/ADR-RES ovarian
OVCAR-3 ovarian = system: OVCAR-3 ovarian
NCI-H23 lung = system: NCI-H23 lung
ACHN renal = system: ACHN renal
CAKI-1 renal = system: CAKI-1 renal
TK-10 renal = system: TK-10 renal
KM12 colon = system: KM12 colon
T-47D breast = system: T-47D breast
CCRF-CEM leukemia = system: CCRF-CEM leukemia
EKVX NSCLC = system: EKVX NSCLC
RPMI-8226 leukemia = system: RPMI-8226 leukemia
LOX IMVI melanoma = system: LOX IMVI melanoma
SK-MEL-5 melanoma = system: SK-MEL-5 melanoma
COLO 205 colon = system: COLO 205 colon
OVCAR-4 ovarian = system: OVCAR-4 ovarian
NCI-H226 lung = system: NCI-H226 lung
RXF 393 renal = system: RXF 393 renal
K-562 leukemia = system: K-562 leukemia
NCI-H522 lung = system: NCI-H522 lung
HS 578T breast = system: HS 578T breast
OVCAR-5 ovarian = system: OVCAR-5 ovarian
UACC-257 melanoma = system: UACC-257 melanoma
SF-539 CNS = system: SF-539 CNS
PC-3 prostate = system: PC-3 prostate
HT29 colon = system: HT29 colon
MCF7 breast = system: MCF7 breast
UACC-62 melanoma = system: UACC-62 melanoma
MDA-MB-435 = system: MDA-MB-435
SNB-75 CNS = system: SNB-75 CNS

Molecule `Cc1ccc(-c2ccc3c(c2)Sc2ccccc2O3)n1C` has a TGI (786-0 renal) of over 100 µM, a TGI (SF-295 CNS) of 0.799 µM and a TGI (HCC-2998 colon) of 0.625 µM. It also gave a TGI (SNB-19 CNS) of over 100 µM, a TGI (HCT-116 colon) of over 100 µM and a TGI (U251 CNS) of over 100 µM. It also gave a TGI (A549 NSCLC) of over 100 µM, a TGI (HCT-15 colon) of over 100 µM and a TGI (SW-620 colon) of over 100 µM. It also gave a TGI (DU-145 prostate) of over 41.5 µM, a TGI (MDA-MB-231 breast) of over 100 µM and a TGI (NCI-H460 lung) of over 36.5 µM. For the same molecule, the TGI (M14 melanoma) was over 65.4 µM, the TGI (MOLT-4 leukemia) was over 67.8 µM and the TGI (SF-268 CNS) was over 33.9 µM. For the same molecule, the TGI (UO-31 renal) was over 68.5 µM, the TGI (HOP-62 NSCLC) was over 100 µM and the TGI (OVCAR-8 ovarian) was over 100 µM. The TGI (SR leukemia) was over 100 µM, the TGI (SK-MEL-2 melanoma) was 4.26 µM and the TGI (SN12C renal) was 7.88 µM. For the same molecule, the TGI (IGROV1 ovarian) was 1.2 µM, the TGI (HL-60(TB) leukemia) was 0.261 µM and the TGI (MALME-3M melanoma) was 50 µM. It also gave a TGI (SK-OV-3 ovarian) of over 100 µM, a TGI (HOP-92 NSCLC) of over 100 µM and a TGI (SK-MEL-28 melanoma) of over 100 µM. For the same molecule, the TGI (A498 renal) was 34 µM, the TGI (NCI/ADR-RES ovarian) was 12.6 µM and the TGI (OVCAR-3 ovarian) was over 100 µM. It also gave a TGI (NCI-H23 lung) of over 100 µM, a TGI (ACHN renal) of over 100 µM and a TGI (CAKI-1 renal) of over 73.1 µM. It also gave a TGI (TK-10 renal) of over 100 µM, a TGI (KM12 colon) of over 43.2 µM and a TGI (T-47D breast) of over 100 µM. The TGI (CCRF-CEM leukemia) was 3.95 µM, the TGI (EKVX NSCLC) was over 88.3 µM and the TGI (RPMI-8226 leukemia) was 0.706 µM. The TGI (LOX IMVI melanoma) was over 100 µM, the TGI (SK-MEL-5 melanoma) was 39.1 µM and the TGI (COLO 205 colon) was 2.12 µM. For the same molecule, the TGI (OVCAR-4 ovarian) was over 100 µM, the TGI (NCI-H226 lung) was over 100 µM and the TGI (RXF 393 renal) was 11.4 µM. It also gave a TGI (K-562 leukemia) of over 100 µM, a TGI (NCI-H522 lung) of 0.373 µM and a TGI (HS 578T breast) of over 100 µM. The TGI (OVCAR-5 ovarian) was over 52.9 µM and the TGI (UACC-257 melanoma) was over 100 µM.

Molecule `Nc1nc(SCC#CCCl)c2[nH]cnc2n1` has a GI50 (SF-539 CNS) of 3.61 µM, a TGI (SF-539 CNS) of 15.4 µM and a GI50 (786-0 renal) of 4.3 µM. It also gave a TGI (786-0 renal) of 14.9 µM, a GI50 (SF-295 CNS) of 3.65 µM and a TGI (SF-295 CNS) of 17.1 µM. For the same molecule, the GI50 (HCC-2998 colon) was 5.85 µM, the TGI (HCC-2998 colon) was 18.9 µM and the GI50 (SNB-19 CNS) was 10.5 µM. For the same molecule, the TGI (SNB-19 CNS) was 23.2 µM, the GI50 (HCT-116 colon) was 3.86 µM and the TGI (HCT-116 colon) was 15.2 µM. For the same molecule, the GI50 (U251 CNS) was 2.97 µM, the TGI (U251 CNS) was 7.79 µM and the GI50 (A549 NSCLC) was 7.04 µM. It also gave a TGI (A549 NSCLC) of 19.8 µM, a GI50 (PC-3 prostate) of 14.6 µM and a TGI (PC-3 prostate) of 75.8 µM. The GI50 (HT29 colon) was 4.92 µM, the TGI (HT29 colon) was 18.1 µM and the GI50 (HCT-15 colon) was 3.52 µM. The TGI (HCT-15 colon) was 17.7 µM, the GI50 (SW-620 colon) was 4.1 µM and the TGI (SW-620 colon) was 17.5 µM. For the same molecule, the GI50 (DU-145 prostate) was 4.39 µM, the TGI (DU-145 prostate) was 15.9 µM and the GI50 (MDA-MB-231 breast) was 6.26 µM. The TGI (MDA-MB-231 breast) was 21.4 µM, the GI50 (NCI-H460 lung) was 3.62 µM and the TGI (NCI-H460 lung) was 16.7 µM. The GI50 (M14 melanoma) was 6.58 µM, the TGI (M14 melanoma) was 20.9 µM and the GI50 (MOLT-4 leukemia) was 4.11 µM. It also gave a TGI (MOLT-4 leukemia) of 30.2 µM, a GI50 (SF-268 CNS) of 3.93 µM and a TGI (SF-268 CNS) of 18.6 µM. It also gave a GI50 (UO-31 renal) of 2.39 µM, a TGI (UO-31 renal) of 11.5 µM and a GI50 (HOP-62 NSCLC) of 9.94 µM. The TGI (HOP-62 NSCLC) was 24.3 µM, the GI50 (OVCAR-8 ovarian) was 11.6 µM and the TGI (OVCAR-8 ovarian) was 33.1 µM. For the same molecule, the GI50 (MCF7 breast) was 4.12 µM, the TGI (MCF7 breast) was 16.3 µM and the GI50 (SR leukemia) was 3.15 µM. For the same molecule, the TGI (SR leukemia) was 18.9 µM, the GI50 (SK-MEL-2 melanoma) was 4.92 µM and the TGI (SK-MEL-2 melanoma) was 23.3 µM. The GI50 (SN12C renal) was 4.75 µM, the TGI (SN12C renal) was 18 µM and the GI50 (IGROV1 ovarian) was 4.58 µM. It also gave a TGI (IGROV1 ovarian) of 23 µM, a GI50 (HL-60(TB) leukemia) of 2.08 µM and a TGI (HL-60(TB) leukemia) of 6.61 µM. The GI50 (MALME-3M melanoma) was 4.81 µM, the TGI (MALME-3M melanoma) was 24 µM and the GI50 (SK-OV-3 ovarian) was 7.56 µM. For the same molecule, the TGI (SK-OV-3 ovarian) was 27.6 µM, the GI50 (UACC-62 melanoma) was 5.46 µM and the TGI (UACC-62 melanoma) was 18.1 µM. The GI50 (HOP-92 NSCLC) was 2.16 µM, the TGI (HOP-92 NSCLC) was 10.4 µM and the GI50 (SK-MEL-28 melanoma) was 11.7 µM. For the same molecule, the TGI (SK-MEL-28 melanoma) was 27.2 µM, the GI50 (A498 renal) was 1.64 µM and the TGI (A498 renal) was 6.87 µM. It also gave a GI50 (NCI/ADR-RES ovarian) of 6.16 µM, a TGI (NCI/ADR-RES ovarian) of 30.4 µM and a GI50 (OVCAR-3 ovarian) of 3.27 µM. For the same molecule, the TGI (OVCAR-3 ovarian) was 10.9 µM, the GI50 (NCI-H23 lung) was 4.46 µM and the TGI (NCI-H23 lung) was 20.1 µM. It also gave a GI50 (ACHN renal) of 3.7 µM, a TGI (ACHN renal) of 15 µM and a GI50 (CAKI-1 renal) of 2.83 µM. It also gave a TGI (CAKI-1 renal) of 10.6 µM, a GI50 (TK-10 renal) of 1.87 µM and a TGI (TK-10 renal) of 11.1 µM. The GI50 (MDA-MB-435) was 3.81 µM, the TGI (MDA-MB-435) was 18.6 µM and the GI50 (KM12 colon) was 6.14 µM. For the same molecule, the TGI (KM12 colon) was 18.6 µM, the GI50 (T-47D breast) was 5.26 µM and the TGI (T-47D breast) was 21.1 µM. For the same molecule, the GI50 (CCRF-CEM leukemia) was 3.39 µM, the TGI (CCRF-CEM leukemia) was 19.3 µM and the GI50 (EKVX NSCLC) was 3.22 µM. For the same molecule, the TGI (EKVX NSCLC) was 15.4 µM, the GI50 (RPMI-8226 leukemia) was 6.86 µM and the TGI (RPMI-8226 leukemia) was 48.8 µM. The GI50 (LOX IMVI melanoma) was 2.97 µM, the TGI (LOX IMVI melanoma) was 11.8 µM and the GI50 (SNB-75 CNS) was 4.23 µM. For the same molecule, the TGI (SNB-75 CNS) was 17.5 µM, the GI50 (SK-MEL-5 melanoma) was 3.11 µM and the TGI (SK-MEL-5 melanoma) was 12.6 µM. The GI50 (COLO 205 colon) was 4.4 µM, the TGI (COLO 205 colon) was 14.9 µM and the GI50 (OVCAR-4 ovarian) was 4.32 µM. It also gave a TGI (OVCAR-4 ovarian) of 67.4 µM, a GI50 (NCI-H226 lung) of 8.02 µM and a TGI (NCI-H226 lung) of 26.7 µM. The GI50 (RXF 393 renal) was 3.05 µM, the TGI (RXF 393 renal) was 14.9 µM and the GI50 (K-562 leukemia) was 4.5 µM. It also gave a TGI (K-562 leukemia) of 40.5 µM, a GI50 (NCI-H522 lung) of 1.47 µM and a TGI (NCI-H522 lung) of 2.95 µM. For the same molecule, the GI50 (HS 578T breast) was 3.89 µM, the TGI (HS 578T breast) was 56.6 µM and the GI50 (OVCAR-5 ovarian) was 4.58 µM. The TGI (OVCAR-5 ovarian) was 17.7 µM, the GI50 (UACC-257 melanoma) was 7.12 µM and the TGI (UACC-257 melanoma) was 22.5 µM.
